For the assay, the target named is phosphorylated BTK in Ramos cells (Homo sapiens (Human), UniProt Q06187). Kind of assay: Determination of phosphorylated BTK in Ramos cells (BTK phospho-Y223 HTRF). The assay is classed as cell-based. Particulars: anti-human IgM + hydrogen peroxide stimulation. In a few lines:
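Ramos cells starved 2 h in 1% FBS, then treated 1 h with compound (0.00018–3.0 μM, 0.3% DMSO). They were then stimulated 10 min at 37° C. with anti-human IgM (10 μg/mL) plus H2O2 (3.3 mM). Lysates read by BTK phospho-Y223 HTRF (665/615 nm ratio); IC50 fitted from inhibition normalized to stimulated and unstimulated controls.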
phosphorylated BTK in Ramos cells, sequence (Q06187 whole entry): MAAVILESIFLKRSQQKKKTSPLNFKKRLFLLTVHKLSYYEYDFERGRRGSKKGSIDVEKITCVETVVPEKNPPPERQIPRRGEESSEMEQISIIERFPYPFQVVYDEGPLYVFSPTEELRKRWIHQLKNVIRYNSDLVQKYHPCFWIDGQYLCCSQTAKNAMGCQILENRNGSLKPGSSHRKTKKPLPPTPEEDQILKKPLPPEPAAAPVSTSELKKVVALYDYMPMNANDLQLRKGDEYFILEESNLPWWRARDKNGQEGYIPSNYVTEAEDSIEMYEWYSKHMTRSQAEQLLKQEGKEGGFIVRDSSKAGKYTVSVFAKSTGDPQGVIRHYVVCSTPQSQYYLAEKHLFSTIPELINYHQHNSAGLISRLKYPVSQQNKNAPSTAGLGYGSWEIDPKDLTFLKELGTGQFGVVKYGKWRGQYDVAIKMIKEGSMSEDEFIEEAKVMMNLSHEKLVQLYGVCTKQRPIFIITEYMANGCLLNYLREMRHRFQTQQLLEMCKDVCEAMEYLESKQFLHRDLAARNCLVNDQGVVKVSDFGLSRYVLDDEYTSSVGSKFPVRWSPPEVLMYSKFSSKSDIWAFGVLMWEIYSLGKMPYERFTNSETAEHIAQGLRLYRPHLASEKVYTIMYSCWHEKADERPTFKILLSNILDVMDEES
For the compound `CC1CCc2cc3c(=O)n(-c4nccc(-c5cc(Nc6ccc(N7CCN(C8COC8)C[C@@H]7C)cn6)c(=O)n(C)c5)c4CO)ccn3c2C1` (mixture of isomers) [Compound 78], the 50% inhibitory concentration (IC50) is 3 nM.

For `C[C@@H]1CN(c2ccc(Nc3cc(-c4ccnc(-n5ccn6c7c(cc6c5=O)CCC7)c4CO)cn(C)c3=O)nc2)[C@@H](C)CN1C1COC1` [Compound 2, 2-(5-((5-((2S,5R)-2,5-dimethyl-4-(oxetan-3-yl)piperazin-1-yl)pyridin-2-yl)amino)-3′-(hydroxymethyl)-1-methyl-6-oxo-1,6-dihydro-[3,4′-bispyridin]-2′-yl)-7,8-dihydro-2H-cyclopenta[4,5]pyrrolo[1,2-a]pyrazin-1(6H)-one], the IC50 stood at 10 nM.

On to `COCCN1CCN(c2ccc(Nc3cc(-c4ccnc(-n5ccn6c7c(cc6c5=O)CC(C)(C)C7)c4CO)cn(C)c3=O)nc2)[C@@H](C)C1` [Compound 8], for which the concentration for half-maximal inhibition (IC50) came to 2 nM.

With `Cn1cc(-c2ccnc(-n3ccn4c5c(cc4c3=O)CC(C)(C)C5)c2CO)cc(Nc2ccc(N3CCN(C4COC4)CC3)cn2)c1=O` [Compound 9], the concentration for half-maximal inhibition (IC50) amounted to 4 nM.

Take `C[C@H]1CN(C2COC2)CCN1c1ccc(Nc2cc(-c3ccnc(-n4ccn5c6c(cc5c4=O)CC(C)(C)C6)c3CO)cn(C)c2=O)nc1` [Compound 19]: the IC50 came out at 4 nM.

For `C[C@H]1CN(C2COC2)CCN1c1ccc(Nc2cc(-c3ccnc(-n4ccn5c6c(cc5c4=O)CC(C)(C)C6)c3CO)cn3ncnc23)nc1` [Compound 21], the IC50 was 15 nM.

Regarding `C[C@H]1CN(C2COC2)CCN1c1ccc(Nc2cc(-c3ccnc(-n4ccn5c6c(cc5c4=O)CC(C)(C)C6)c3CO)nn(C)c2=O)nc1` [Compound 22], the 50% inhibitory concentration (IC50) is 18 nM.

Turning to `C[C@H]1CN(C2COC2)CCN1c1ccc(Nc2cc(-c3ccnc(-n4ccn5c6c(cc5c4=O)CC(C)(C)C6)c3CO)cn3c(F)cnc23)nc1` [Compound 23], the IC50 was found to be 30 nM.

As for `C[C@H]1CN(C)CCN1c1ccc(Nc2cc(-c3ccnc(-n4ccn5c6c(cc5c4=O)CC(C)(C)C6)c3CO)cn(C)c2=O)nc1` [Compound 26], the concentration for half-maximal inhibition (IC50) was found to be 7 nM.

`C[C@@H]1CN(c2ccc(Nc3cc(-c4ccnc(-n5ccn6c7c(cc6c5=O)CC(C)(C)C7)c4CO)cn(C)c3=O)nc2)[C@@H](C)CN1C1COC1` [Compound 27]: the IC50 is 1 nM.

With `Cn1cc(Nc2cc(-c3ccnc(-n4ccn5c6c(cc5c4=O)CC(C)(C)C6)c3CO)cn(C)c2=O)nn1` [Compound 28], the IC50 worked out at 2 nM.

Turning to `Cn1cc(-c2ccnc(-n3ccn4c5c(cc4c3=O)CC(C)(C)C5)c2CO)cc(Nc2cn(CCF)nn2)c1=O` [Compound 31], the concentration for half-maximal inhibition (IC50) stood at 6 nM.

On to `C[C@H]1CN(C2COC2)CCN1c1cnc(Nc2cc(-c3ccnc(-n4ccn5c6c(cc5c4=O)CC(C)(C)C6)c3CO)cn(C)c2=O)cn1` [Compound 43], for which the half-maximal inhibitory concentration (IC50) turned out to be 2 nM.

Regarding `C[C@H]1CN(C2COC2)CCN1c1cnc(Nc2cc(-c3ccnc(-n4ccn5c6c(cc5c4=O)CC(C)(C)C6)c3CO)cn(C)c2=O)nc1` [Compound 44], the IC50 was 18 nM.

On to `CN1CCN(C(=O)c2ccc(Nc3cc(-c4ccnc(-n5ccn6c7c(cc6c5=O)CC(C)(C)C7)c4CO)cn(C)c3=O)nc2)CC1` [Compound 48], for which the concentration for half-maximal inhibition (IC50) was found to be 6 nM.

With `C[C@H]1CN(C2COC2)CCN1c1ccc(Nc2cc(-c3ccnc(-n4ccn5c6c(cc5c4=O)CC(C)(C)C6)c3CO)n[nH]c2=O)nc1` [Compound 49], the IC50 worked out at 1 nM.

Regarding `COCCN(C)c1ccc(Nc2cc(-c3ccnc(-n4ccn5c6c(cc5c4=O)CC(C)(C)C6)c3CO)cn(C)c2=O)nc1` [Compound 50], the IC50 worked out at 2 nM.

For the compound `C[C@H]1CN(C2COC2)CCN1c1ccc(Nc2cc(-c3ccnc(-n4ccn5c6c(cc5c4=O)CCC(F)(F)C6)c3CO)cn(C)c2=O)nc1` [Compound 56], the half-maximal inhibitory concentration (IC50) worked out at 24 nM.

Turning to `C[C@H]1CN(C2COC2)CCN1c1ccc(Nc2cc(-c3ccnc(-n4ccn5c(c(F)c6ccccc65)c4=O)c3CO)cn(C)c2=O)nc1` [Compound 57], the IC50 stood at 3 nM.

With `C[C@H]1CN(C2COC2)CCN1c1ccc(Nc2cc(-c3ccnc(-n4ccn5c6c(cc5c4=O)CC(F)(F)CC6)c3CO)cn(C)c2=O)nc1` [Compound 58], the half-inhibitory concentration (IC50) was 4 nM.

For the compound `C[C@@H]1CN(c2ccc(Nc3cc(-c4ccnc(-n5ccn6c(c(F)c7ccccc76)c5=O)c4CO)cn(C)c3=O)nc2)[C@@H](C)CN1C1COC1` [Compound 59], the 50% inhibitory concentration (IC50) came to 1 nM.

Turning to `C[C@H]1CN(C2COC2)CCN1c1ccc(Nc2cc(-c3ccnc(-n4ccn5c(c(F)c6cc(F)ccc65)c4=O)c3CO)cn(C)c2=O)nc1` [Compound 60], the concentration for half-maximal inhibition (IC50) was found to be 3 nM.

For the compound `C[C@H]1CN(C2COC2)CCN1c1ccc(Nc2cc(-c3ccnc(-n4cnn5c6c(cc5c4=O)CC(C)(C)C6)c3CO)cn(C)c2=O)nc1` [Compound 63], the IC50 was 5 nM.

As for `C[C@H]1CN(C2COC2)CCN1c1ccc(Nc2cc(-c3ccnc(-n4ccn5c6c(cc5c4=O)CCC6)c3CO)cn(C)c2=O)nc1` [Compound 64], the concentration for half-maximal inhibition (IC50) is 10 nM.

Turning to `CCn1cc(Nc2cc(-c3ccnc(-n4ccn5c6c(cc5c4=O)CC(C)(C)C6)c3CO)cn3ncnc23)nn1` [Compound 71], the IC50 was 6 nM.

Consider `C[C@H]1CN(C2COC2)CCN1c1ccc(Nc2cc(-c3ccnc(-n4ccn5c(cc6ccccc65)c4=O)c3CO)cn(C)c2=O)nc1` [Compound 74], for which the IC50 was determined as 11 nM.

Regarding `C[C@H]1CN(C2COC2)CCN1c1ccc(Nc2cc(-c3ccnc(-n4ccn5c(cc6cc(F)ccc65)c4=O)c3CO)cn(C)c2=O)nc1` [Compound 75], the IC50 turned out to be 7 nM.

Turning to `C[C@H]1CN(C2COC2)CCN1c1ccc(Nc2cc(-c3ccnc(-n4ncn5c6c(cc5c4=O)CC(C)(C)C6)c3CO)cn(C)c2=O)nc1` [Compound 79], the IC50 stood at 2 nM.

The record behind these values is patent US11478474B2, “2-(3′-(hydroxymethyl)-1-methyl-5-((5-(2-methyl-4-(oxetan-3-yl)piperazin-1-yl)pyridin-2-yl)amino)-6-oxo-1,6-dihydro-[3,4′-bipyridin]-2′-yl)-7,7-dimethyl-7,8-dihydro-2H-cyclopenta[4,5]pyrrolo[1,2-a]pyrazin-1(6H)-one as a BTK inhibitor” (HUTCHISON MEDIPHARMA LIMITED, priority 2020, dated 2022).
